According to article PMC10100771, “A Novel CMY Variant Confers Transferable High-Level Resistance to Ceftazidime-Avibactam in Multidrug-Resistant Escherichia coli” (Microbiology Spectrum, 2023):
Values after ≈ are worked out from the molar mass of the structure shown.

Columns and labels:
E. coli strain AR13438 = experiment: MIC by agar dilution, clinical isolate AR13438; format: cell-based, Escherichia coli; conditions: for MIC: Escherichia coli, AR13438, clinical E. coli isolate (blaCMY-178, blaTEM-1, blaCTX-M-27), agar dilution
Procedure: (§1) Antimicrobial susceptibility testing was performed and interpreted according to the Clinical and Laboratory Standards Institute (CLSI) guidelines and breakpoints (M100, 31st edition) by the agar dilution method. E. coli ATCC 25922 and K. pneumoniae ATCC 700603 served as control strains.
(§2) The antibiotics we used included meropenem (Hanhui Pharmaceutical Co., Ltd., China), imipenem (Merck Sharp & Dohme Corp., USA), cefepime (Jiangsu Hengrui Pharmaceutical Co., Ltd., China), piperacillin (Suzhou Erye Pharmaceutical Co., Ltd., China), ceftazidime (Guangdong Jincheng Jinsu Pharmaceutical Co., Ltd., China), tazobactam (Meilunbio, China), avibactam (MedChemExpress, USA), aztreonam (Sigma-Aldrich, USA), amikacin (Meilunbio), cefuroxime (Esseti Farmaceutici S.r.l., Italy), fosfomycin (Harbin Pharmaceutical Group Co., Ltd. China), levofloxacin (Daiichi Sankyo Company Limited, Beijing, China), and cefotaxime (North China Pharmaceutical Hebei Huamin Pharmaceutical Co., Ltd., China).

[1] = tested on: K. pneumoniae isolate KPCZA02; experiment: microbe, parasite or virus in culture; format: cell-based; conditions: Klebsiella pneumoniae
Procedure: as §1

E. coli DH5α = experiment: MIC by agar dilution, E. coli DH5α; format: cell-based; conditions: Escherichia coli
Procedure: as §1, §2

E. coli DH5α-pCR2.1 = experiment: MIC by agar dilution, DH5α with blank vector pCR2.1; format: cell-based; conditions: Escherichia coli
Procedure: as §1, §2
(§3) The blaCMY cloning was performed using a TA cloning kit (Invitrogen, Shanghai, China). The blaCMY-178 gene combined with its predicted promoter was amplified from isolate AR13438. Then, the blaCMY-178 gene was cloned into the linearized vector pCR2.1 using T4 DNA ligase (Invitrogen). The blaCMY-172 gene was cloned from KPCZA02 with the same method. The resulting plasmids were chemically transformed into E. coli DH5α. The positive transformants were identified by blue-white screening in MH agar containing 50 μg/mL kanamycin and were further confirmed by Sanger sequencing. The pCR2.1 blank vector was also transformed into E. coli DH5α as a control. The primers used for cloning were CMY-F and CMY-R (see Table S2 in the supplemental material). Relative CMY expression was measured by reverse transcription-quantitative PCR as described previously ([34]). Specific quantitative PCR (qPCR) primers (q-recA-F/R and q-CMY-F/R) were designed (Table S2).

E. coli J53 = experiment: MIC by agar dilution, recipient E. coli J53; format: cell-based; conditions: Escherichia coli
Procedure: as §1, §2
(§4) Conjugation experiments were performed by filter mating using sodium-azide-resistant E. coli J53 as the recipient, as described previously. Transconjugants were selected with MH agar containing 100 μg/mL sodium azide and 4 μg/mL ceftazidime-avibactam; furthermore, transconjugants were named J53-AR13438 and J53-KPCZA02, respectively. We compared genomes of AR13438 and J53 to select a unique gene (gtrA) to J53. The blaCMY-178-postive transconjugants were confirmed by PCR and MALDI-TOF MS (see Fig. S9 in the supplemental material). The primers used for PCR were gtrA-F, gtrA-R, CMY-F, and CMY-R (Table S1). The transfer frequencies were calculated as the number of transconjugants (CFU/mL) divided by the number of recipients (CFU/mL). Donors and recipients were mixed at 1:1 for the transfer frequency experiment. S1-PFGE and Southern blotting were performed to define the location of blaCMY-178 and confirm the transmission of the plasmid as described previously ([35]). The MIC profiles of transconjugants were also determined by the agar dilution method.

E. coli J53-AR13438 = experiment: MIC by agar dilution, conjugant containing pAR13438_2; format: cell-based; conditions: Escherichia coli, J53AR13438, E. coli J53-AR13438 (blaCMY-178)
Procedure: as §1
as §4, with “The blaCMY-178-postive transconjugants were confirmed by PCR and MALDI-TOF MS (see Fig. S9 in the supplemental material).” left out

E. coli J53-KPCZA02 = experiment: MIC by agar dilution, conjugant containing pKPCZA02_4; format: cell-based; conditions: Escherichia coli, J53KPCZA02, E. coli J53-KPCZA02 (blaCMY-172)
Procedure: as §1
as §4, with “The blaCMY-178-postive transconjugants were confirmed by PCR and MALDI-TOF MS (see Fig. S9 in the supplemental material).” left out

[2] = tested on: E. coli DH5α-pCR2.1-CMY-2; experiment: MIC by agar dilution, transformant containing blaCMY-2; format: cell-based; conditions: Escherichia coli
[3] = tested on: E. coli DH5α-pCR2.1-CMY-178; experiment: MIC by agar dilution, transformant containing blaCMY-178; format: cell-based, Escherichia coli; conditions: Escherichia coli; E. coli DH5α-pCR2.1-CMY-178; agar dilution
Procedure: as §1, §2, §3

[4] = tested on: E. coli DH5α-pCR2.1-CMY-172; experiment: MIC by agar dilution, transformant containing blaCMY-172; format: cell-based; conditions: Escherichia coli
Procedure: as §1, §2, §3

CMY-172 = molecular target: T1, CMY-172 (Klebsiella pneumoniae, UniProt Q48434, DEL310-312/N366I); experiment: Enzyme kinetics (substrate hydrolysis) of purified CMY-172; format: biochemical
T1 construct: were amplified without a signal peptide and cloned into the pET28a; His8 (N); made in house; host or cells: E. coli BL21(DE3)
Procedure: (§5) blaCMYs (including blaCMY-2, blaCMY-172, and blaCMY-178) were amplified without a signal peptide and cloned into the pET28a, which led to the introduction of an N-terminal His8-Tag.The recombinant plasmids were transformed into E. coli BL21(DE3) and selected using Sanger sequencing. Lysogenic broth containing 50 μg/mL kanamycin was inoculated with transformants and grown to reach an OD600 of 0.6. A final concentration of 1 mM isopropyl-β-D-thiogalactopyranoside (IPTG) was added into the resulting culture, which was shaken at 18°C overnight. The culture broth was centrifuged to harvest bacteria. The pellet was resuspended in lysis buffer (50 mM Tris-HCl and 300 mM NaCl (pH 7.5)) and disrupted using a JN-02C French press (JNBIO, Guangzhou, China) at 1,100 bar. Then, the cell debris was removed by centrifugation at 11,000 rpm for 40 min at 4°C. The supernatant was added to an Ni column, and the absorbed protein was eluted by the eluent buffer (lysis buffer with 300 mM imidazole). SDS-PAGE confirmed the protein purity of the eluent (>95%), and the sample was loaded onto a pre-equilibrated Superdex 200 column to eliminate imidazole.
(§6) Enzymatic activities were measured using a D8 UV-visible spectrophotometer (Rumqee, Shanghai, China) in phosphate-buffered saline (PBS; pH 7.2) at room temperature. Substrates tested included nitrocefin, ceftazidime, and avibactam. The extinction coefficient and wavelength of nitrocefin are 17,400 M^−1 · cm^−1 and 482 nm, respectively. […] The initial reaction velocities (v) were measured and Ki values were calculated by fitting data into equation 1 with GraphPad Prism v9.0.0 ([37]). (1) v=Vmax[S]/[S]+Km NCF (1+[I]/Ki)

CMY-178 = molecular target: T2, CMY-178 (Klebsiella pneumoniae, UniProt Q48434, DEL310-312/N366I/N90T); experiment: Enzyme kinetics (substrate hydrolysis) of purified CMY-178; format: biochemical, Escherichia coli
T2 construct: were amplified without a signal peptide and cloned into the pET28a; His8 (N); made in house; host or cells: E. coli BL21(DE3)
Procedure: as §5, §6

[5] = tested on: O=C(Cc1cccs1)N[C@@H]1C(=O)N2C(C(=O)O)=C(/C=C/c3ccc([N+](=O)[O-])cc3[N+](=O)[O-])CS[C@H]12; experiment: Enzyme kinetics (substrate hydrolysis) of purified CMY-2; format: biochemical; conditions: other: CMY-2, PBS pH 7.2, room temperature, mean ± SD, three experiments
Procedure: as §5, §6

[6] = CMY-172, PBS pH 7.2, room temperature, mean ± SD, three experiments
[7] = CMY-178, PBS pH 7.2, room temperature, mean ± SD, three experiments

C[C@@H]1O[C@@H]1P(=O)(O)O [FOS, fosfomycin]
MIC (E. coli strain AR13438): 1 µg/mL (≈ 7.24 µM) | MIC [1]: > 1020 µg/mL | MIC (E. coli DH5α): 0.25 µg/mL (≈ 1.81 µM) | MIC (E. coli DH5α-pCR2.1): 0.25 µg/mL (≈ 1.81 µM) | MIC (E. coli J53): 0.5 µg/mL (≈ 3.62 µM) | MIC (E. coli J53-AR13438): 0.5 µg/mL (≈ 3.62 µM) | MIC (E. coli J53-KPCZA02): 0.5 µg/mL (≈ 3.62 µM)

C[C@@H](O)[C@H]1C(=O)N2C(C(=O)O)=C(SCCN=CN)C[C@H]12 [IMP, imipenem]
MIC (E. coli strain AR13438): 1 µg/mL (≈ 3.34 µM) | MIC [1]: 64 µg/mL (≈ 214 µM) | MIC (E. coli DH5α): 0.25 µg/mL (≈ 0.835 µM) | MIC (E. coli J53): 0.5 µg/mL (≈ 1.67 µM) | MIC (E. coli J53-AR13438): 0.5 µg/mL (≈ 1.67 µM) | MIC (E. coli J53-KPCZA02): 0.5 µg/mL (≈ 1.67 µM)

C[C@H]1COc2c(N3CCN(C)CC3)c(F)cc3c(=O)c(C(=O)O)cn1c23 [LEV, levofloxacin]
Antimicrobial susceptibility category (E. coli strain AR13438; AR13438, CLSI breakpoints (M100, 31st edition)): resistant | MIC (E. coli strain AR13438): 32 µg/mL (≈ 88.6 µM) | MIC [1]: 32 µg/mL (≈ 88.6 µM) | MIC (E. coli DH5α): 0.03 µg/mL (≈ 0.083 µM) | MIC (E. coli DH5α-pCR2.1): 0.03 µg/mL (≈ 0.083 µM) | MIC [2]: 0.06 µg/mL (≈ 0.166 µM) | MIC [3]: 0.06 µg/mL (≈ 0.166 µM) | MIC (E. coli J53): 0.03 µg/mL (≈ 0.083 µM) | MIC (E. coli J53-AR13438): 0.03 µg/mL (≈ 0.083 µM) | MIC (E. coli J53-KPCZA02): 0.03 µg/mL (≈ 0.083 µM)

C[C@@H](O)[C@H]1C(=O)N2C(C(=O)O)=C(S[C@@H]3CN[C@H](C(=O)N(C)C)C3)[C@H](C)[C@H]12 [MEM, meropenem]
MIC (E. coli strain AR13438): 0.125 µg/mL (≈ 0.326 µM) | MIC [1]: 128 µg/mL (≈ 334 µM) | MIC (E. coli DH5α): 0.03 µg/mL (≈ 0.0782 µM) | MIC (E. coli DH5α-pCR2.1): 0.03 µg/mL (≈ 0.0782 µM) | MIC [3]: 0.06 µg/mL (≈ 0.156 µM) | MIC [4]: 0.06 µg/mL (≈ 0.156 µM) | MIC (E. coli J53): 0.03 µg/mL (≈ 0.0782 µM) | MIC (E. coli J53-AR13438): 0.06 µg/mL (≈ 0.156 µM) | MIC (E. coli J53-KPCZA02): 0.06 µg/mL (≈ 0.156 µM)

O=C(Cc1cccs1)N[C@@H]1C(=O)N2C(C(=O)O)=C(/C=C/c3ccc([N+](=O)[O-])cc3[N+](=O)[O-])CS[C@H]12 [NCF, nitrocefin]
Kcat (CMY-172; [6]): 52.41 ± 2.65 s⁻¹ | Km (CMY-172; [6]): 12 ± 0.66 µM | Decrease of kcat/Km compared with CMY-2 (CMY-172; CMY-172 vs CMY-2): approximately 3 fold | Kcat (CMY-178; [7]): 55.81 ± 1.04 s⁻¹ | Km (CMY-178; [7]): 12.5 ± 0.31 µM | Decrease of kcat/Km compared with CMY-2 (CMY-178; CMY-178 vs CMY-2): approximately 3 fold

CCN1CCN(C(=O)N[C@@H](C(=O)N[C@@H]2C(=O)N3[C@@H]2SC(C)(C)[C@@H]3C(=O)O)c2ccccc2)C(=O)C1=O [PIP, piperacillin]
MIC (E. coli strain AR13438): > 256 µg/mL | MIC [1]: > 256 µg/mL | MIC (E. coli DH5α): 1 µg/mL (≈ 1.93 µM) | MIC (E. coli DH5α-pCR2.1): 1 µg/mL (≈ 1.93 µM) | MIC [2]: 256 µg/mL (≈ 495 µM) | MIC [3]: 256 µg/mL (≈ 495 µM) | MIC [4]: 256 µg/mL (≈ 495 µM) | MIC (E. coli J53): 4 µg/mL (≈ 7.73 µM) | MIC (E. coli J53-AR13438): 64 µg/mL (≈ 124 µM) | MIC (E. coli J53-KPCZA02): 64 µg/mL (≈ 124 µM)

CMY-2 (Klebsiella pneumoniae)
Km [5]: 59.88 ± 2.59 µM | kcat [5]: 732 ± 16.1 s⁻¹ | kcat/Km [5]: 1.22e+07 ± 600000 M⁻¹ s⁻¹
